Laboratory results published in ChEMBL document CHEMBL5252583, “Cancer cell growth suppressibility of ω-3 fatty acid whose carboxy group converted to ester group” (Bioorg Med Chem Lett, 2023).

Tests used:
[1] = Drug uptake in human MIA PaCa-2 cells assessed as increase in incorporation of compound into lipid droplets by measuring absorbance at 50 uM incubated for 24 hrs by Oil Red O staining based fluorescence microscopic analysis (reference value: 2.35 +/- 0.11 10^-2No_unit); format: ADME, cell-based; conditions: mia paca-2, 24 h
MCF7 = test: Antiproliferative activity against human MCF7 cells assessed as cell growth inhibition at 500 uM measured after 24 hrs by alamar blue assay relative to control; format: functional
HCT-116 = test: Antiproliferative activity against human HCT-116 cells assessed as cell growth inhibition at 500 uM measured after 24 hrs by alamar blue assay relative to control; format: functional
MIA PaCa-2 = test: Antiproliferative activity against human MIA PaCa-2 cells assessed as cell growth inhibition at 500 uM measured after 24 hrs by alamar blue assay relative to control; format: functional

Activity [1] | Structure (SMILES) | inhibition at 500 µM (MCF7) | inhibition at 500 µM (HCT-116) | inhibition at 500 µM (MIA PaCa-2)
4.07 10^-2No_unit | CC/C=C\C/C=C\C/C=C\CCCCCCCC(=O)Oc1ccc(C(F)(F)F)cc1 | 47% | 37% | 25%
4.12 10^-2No_unit | CC/C=C\C/C=C\C/C=C\CCCCCCCC(=O)Oc1ccccc1 | 48% | 36% | 23%
4.19 10^-2No_unit | CC/C=C\C/C=C\C/C=C\CCCCCCCC(=O)O [LINOLENIC ACID] | 50% | 36% | 25%
3.94 10^-2No_unit | CC/C=C\C/C=C\C/C=C\CCCCCCCC(=O)Oc1ccc(OC)cc1 | 49% | 40% | 26%
